Assay results published in ChEMBL document CHEMBL3046734, “Molecular insights to explore abietane diterpenes as new LOX inhibitors” (Med Chem Res, 2013).

How the values were obtained:
[1] = Inhibition of Soybean LOX using linoleic acid as substrate incubated for 5 mins prior to substrate addition measured after 10 mins by spectrophotometric analysis; set-up: species or system Glycine max
[2] = Inhibition of LOX (unknown origin); set-up: species or system Homo sapiens

SMILES | IC50 [1] [µM] | IC50 [2] [µM]
COc1c(C(C)C)cc2c(c1O)[C@@]1(C)CCC(=O)C(C)(C)[C@@H]1CC2=O [TAXUSABIETANE A] |  | 57
NC(=O)n1c(O)c(C(=O)c2cccs2)c2cc(Cl)ccc21 [TANIDAP SODIUM] | 41.6 | 

The next lines start with results.

IC50 [1] [µM] | SMILES | IC50 [2] [µM]
69 | COc1c(C(C)C)cc2c(c1OC)[C@@]13CCC(=O)C(C)(C)[C@@H]1[C@H](OC3=O)C2=O [TAXUSABIETANE C] | 
22.1 | O=c1cc(-c2ccccc2)oc2cc(O)c(O)c(O)c12 [BAICALEIN] | 
73 | COc1c(C(C)C)cc2c(c1O)C=C1C=CC(=O)C(C)(C)C1CC2=O (stereo not given) [TAXAMAIRIN F] | 
